Among the data in BindingDB's records for doi:10.3109/14756366.2012.658786 (Yeungnam University, 2013) are IC50 values, retold here.

The target in this test is Fatty acid synthase (Gallus gallus, UniProt P12276). Description: FAS Inhibitory Assay. The conditions noted are these: pH 7; 37 °C. As to the method: To each microtube (final volume: 100 μL), FAS was added (20-30 μg protein) in a buffer containing 100 mM potassium phosphate (pH 7.0), 2.5 mM dithiothreitol and 2.0 mM EDTA with or without test compounds. The mixtures were preincubated at 37°C for 60 min and the reaction was started by the addition of a substrate mixture containing 0.25 mM NADPH, 0.4 nmol of malonyl CoA and 0.02 μCi of [3H] acetyl CoA. Following incubation at 37°C for 10 min, the reaction was terminated with 60% HClO4. Fatty acids were extracted with 1 mL of hexane and incorporation of radioactivity into the fatty acids was assessed by scintillation counting [Na et al., Bioorg. Med. Chem. Lett., 16:4738-4742].
Sequence of Fatty acid synthase (P12276 whole entry): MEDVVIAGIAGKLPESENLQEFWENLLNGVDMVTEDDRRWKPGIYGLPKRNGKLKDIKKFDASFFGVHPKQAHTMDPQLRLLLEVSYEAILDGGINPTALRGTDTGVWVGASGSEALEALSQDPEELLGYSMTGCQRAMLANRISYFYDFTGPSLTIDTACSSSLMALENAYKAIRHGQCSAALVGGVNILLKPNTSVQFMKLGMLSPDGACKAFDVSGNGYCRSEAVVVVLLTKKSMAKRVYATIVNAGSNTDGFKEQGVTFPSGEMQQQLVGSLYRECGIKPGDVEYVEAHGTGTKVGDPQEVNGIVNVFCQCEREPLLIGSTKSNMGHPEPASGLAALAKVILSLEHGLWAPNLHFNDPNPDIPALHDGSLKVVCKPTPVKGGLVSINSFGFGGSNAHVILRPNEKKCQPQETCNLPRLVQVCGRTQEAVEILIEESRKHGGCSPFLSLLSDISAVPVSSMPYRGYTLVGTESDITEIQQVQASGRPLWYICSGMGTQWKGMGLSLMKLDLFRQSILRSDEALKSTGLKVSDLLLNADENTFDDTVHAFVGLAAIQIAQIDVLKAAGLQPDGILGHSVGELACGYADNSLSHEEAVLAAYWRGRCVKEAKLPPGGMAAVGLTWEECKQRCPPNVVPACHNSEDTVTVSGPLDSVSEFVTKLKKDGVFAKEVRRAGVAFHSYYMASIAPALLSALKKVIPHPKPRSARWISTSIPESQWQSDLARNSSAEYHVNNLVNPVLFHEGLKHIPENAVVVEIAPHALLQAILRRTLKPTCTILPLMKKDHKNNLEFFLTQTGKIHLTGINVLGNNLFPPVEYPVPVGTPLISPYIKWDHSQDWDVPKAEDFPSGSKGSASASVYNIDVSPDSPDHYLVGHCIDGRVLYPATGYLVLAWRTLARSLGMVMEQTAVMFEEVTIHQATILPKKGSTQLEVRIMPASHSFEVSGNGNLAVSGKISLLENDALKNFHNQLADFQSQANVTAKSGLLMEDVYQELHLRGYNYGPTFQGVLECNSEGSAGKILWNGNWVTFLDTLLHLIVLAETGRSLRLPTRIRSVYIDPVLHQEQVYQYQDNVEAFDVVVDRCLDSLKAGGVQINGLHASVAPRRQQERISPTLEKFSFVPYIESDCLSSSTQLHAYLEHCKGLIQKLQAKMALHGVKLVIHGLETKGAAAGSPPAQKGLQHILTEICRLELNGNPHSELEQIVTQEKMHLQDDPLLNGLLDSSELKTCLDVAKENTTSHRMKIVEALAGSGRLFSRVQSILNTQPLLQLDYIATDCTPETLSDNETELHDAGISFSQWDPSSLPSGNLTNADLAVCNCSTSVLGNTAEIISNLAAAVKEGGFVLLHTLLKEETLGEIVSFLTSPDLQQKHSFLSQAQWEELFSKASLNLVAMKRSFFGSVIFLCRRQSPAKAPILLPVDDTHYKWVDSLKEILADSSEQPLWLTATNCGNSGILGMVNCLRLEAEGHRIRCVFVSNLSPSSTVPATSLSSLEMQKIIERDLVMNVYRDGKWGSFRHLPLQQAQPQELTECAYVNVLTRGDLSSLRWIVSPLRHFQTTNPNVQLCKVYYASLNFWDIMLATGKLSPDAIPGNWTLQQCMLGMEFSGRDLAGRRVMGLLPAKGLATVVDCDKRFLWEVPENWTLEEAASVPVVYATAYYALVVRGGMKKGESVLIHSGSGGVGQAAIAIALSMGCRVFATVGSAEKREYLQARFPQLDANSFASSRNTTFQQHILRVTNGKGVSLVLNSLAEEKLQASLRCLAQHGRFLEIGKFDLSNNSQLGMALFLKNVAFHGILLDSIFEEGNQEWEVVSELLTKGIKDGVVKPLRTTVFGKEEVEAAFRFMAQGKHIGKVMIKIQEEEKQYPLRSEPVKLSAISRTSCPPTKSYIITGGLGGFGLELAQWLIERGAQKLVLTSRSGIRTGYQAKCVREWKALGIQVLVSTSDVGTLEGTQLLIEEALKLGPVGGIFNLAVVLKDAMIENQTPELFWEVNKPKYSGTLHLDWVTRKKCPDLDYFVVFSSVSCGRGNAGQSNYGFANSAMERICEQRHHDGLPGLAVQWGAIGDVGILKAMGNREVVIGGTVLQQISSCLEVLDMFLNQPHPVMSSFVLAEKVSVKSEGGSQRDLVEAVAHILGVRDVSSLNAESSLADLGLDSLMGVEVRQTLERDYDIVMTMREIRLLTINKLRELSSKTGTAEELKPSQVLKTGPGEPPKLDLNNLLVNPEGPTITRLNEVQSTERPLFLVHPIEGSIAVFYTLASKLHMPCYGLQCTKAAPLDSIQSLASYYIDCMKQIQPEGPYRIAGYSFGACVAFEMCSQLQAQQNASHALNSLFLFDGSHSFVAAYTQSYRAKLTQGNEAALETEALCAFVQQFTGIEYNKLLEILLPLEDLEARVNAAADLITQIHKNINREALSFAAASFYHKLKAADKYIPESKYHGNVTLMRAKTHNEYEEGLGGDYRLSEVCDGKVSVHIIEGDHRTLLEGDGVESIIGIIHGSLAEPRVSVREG

In turn, `C/C=C/C/C=C/CCC(=O)[C@H]1O[C@H]1C(N)=O` showed a concentration for half-maximal inhibition (IC50) of 13 µM.

`O=c1cc(-c2ccc(O)c(O)c2)oc2cc(O)cc(O)c12` [2-(3,4-dihydroxyphenyl)-5,7-dihydroxy-4H-chromen-4-one] displayed an IC50 of 62.5 µM.

Compound `CCCCCC/C=C\CCCCCCCCCc1cccc(O)c1C(=O)O` [6-[10'(Z)-heptade-cenyljsalicylic acid] showed an IC50 of 10.5 µM.

On to `CCCCCC/C=C\CCCCCCCc1cccc(O)c1C(=O)O` [6-{8(Z)-pentadecenyl}salicylic acid], for which 17.1 µM corresponded to half-maximal inhibition (IC50).

`CCCCC/C=C/C/C=C/CCCCCCCc1cccc(O)c1C(=O)O` [Ginkgolic acid C17:2 (2)] had an IC50 of 9.2 µM.

What is called IC50 is the midpoint of a concentration-inhibition curve. Lower therefore signals greater potency.
